Reference: ChEMBL document CHEMBL3603778, “Exploration on natural product anibamine side chain modification toward development of novel CCR5 antagonists and potential anti-prostate cancer agents” (Bioorg Med Chem Lett, 2015)

Key:
PC-3 = assay: Antiproliferative activity against human PC3 cells after 72 hrs by WST1 assay; format: functional, cell-based; conditions: PC-3, 72 h
[1] = target: C-C chemokine receptor type 5 (Homo sapiens, UniProt P51681); assay: Antagonist activity at CCR5 (unknown origin) expressed in human MOLT4 cells assessed as inhibition of CCL5-induced calcium mobilization after 1 hr; format: functional, cell-based, MOLT-4
[2] = Antiproliferative activity against human M12 cells after 72 hrs by WST1 assay; format: functional, cell-based; conditions: M12, 72 h
[3] = Cytotoxicity against mouse NIH/3T3 cells after 72 hrs by WST1 assay; format: cell-based, NIH3T3; conditions: read-out: TC50

C-C chemokine receptor type 5, sequence (P51681 whole entry): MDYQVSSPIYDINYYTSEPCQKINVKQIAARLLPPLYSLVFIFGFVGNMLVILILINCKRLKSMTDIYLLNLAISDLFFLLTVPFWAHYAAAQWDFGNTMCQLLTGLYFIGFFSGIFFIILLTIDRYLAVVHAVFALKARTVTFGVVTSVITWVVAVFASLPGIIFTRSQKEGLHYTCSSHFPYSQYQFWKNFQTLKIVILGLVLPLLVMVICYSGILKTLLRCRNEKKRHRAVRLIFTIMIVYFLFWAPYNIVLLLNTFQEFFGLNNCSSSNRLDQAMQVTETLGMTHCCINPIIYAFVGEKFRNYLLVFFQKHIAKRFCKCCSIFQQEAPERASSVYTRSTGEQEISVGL

SMILES | IC50 (PC-3) [µM] | IC50 [1] [µM] | IC50 [2] [µM] | CC50 at 72 h [3] [µM]
Cc1ccc(C(=O)NCc2c(C)c(CNC(=O)c3ccc(C)cc3)c3[n+](c2C)CCC3)cc1 | 244 | 18.7 | 185 | 
Cc1c(CNC(=O)c2ccc(C(C)C)cc2)c(C)[n+]2c(c1CNC(=O)c1ccc(C(C)C)cc1)CCC2 | 168 | 26.8 | 120 | 270
Cc1c(CNC(=O)c2ccc(Cl)cc2)c(C)[n+]2c(c1CNC(=O)c1ccc(Cl)cc1)CCC2 | 179 | 46.2 | 135 | 263
Cc1c(CNC(=O)c2ccc(-c3ccccc3)cc2)c(C)[n+]2c(c1CNC(=O)c1ccc(-c3ccccc3)cc1)CCC2 | 47.1 | 17.3 | 49.1 | 228
Cc1c(CNC(=O)c2ccc(C(C)(C)C)cc2)c(C)[n+]2c(c1CNC(=O)c1ccc(C(C)(C)C)cc1)CCC2 | 31 | 30.1 | 59.9 | 83.2
Cc1c(CNC(=O)c2ccccc2)c(C)[n+]2c(c1CNC(=O)c1ccccc1)CCC2 | 508 | 1.35 | 285 | 212
Cc1c(CNC(=O)c2ccc(Br)cc2)c(C)[n+]2c(c1CNC(=O)c1ccc(Br)cc1)CCC2 | 147 | 38.5 | 92 | 182
Cc1c(CNC(=O)c2ccc3ccccc3c2)c(C)[n+]2c(c1CNC(=O)c1ccc3ccccc3c1)CCC2 | 101 | 12.7 | 192 | 
CSc1ccc(C(=O)NCc2c(C)c(CNC(=O)c3ccc(SC)cc3)c3[n+](c2C)CCC3)cc1 | 102 |  | 252 | 
CCc1ccc(C(=O)NCc2c(C)c(CNC(=O)c3ccc(CC)cc3)c3[n+](c2C)CCC3)cc1 | 162 | 23.9 | 169 | 
Cc1c(CNC(=O)c2ccc(C(F)(F)F)cc2)c(C)[n+]2c(c1CNC(=O)c1ccc(C(F)(F)F)cc1)CCC2 |  | 121 |  | 
COc1ccc(C(=O)NCc2c(C)c(CNC(=O)c3ccc(OC)cc3)c3[n+](c2C)CCC3)cc1 | 154 | 69 | 127 | 
Cc1c(CNC(=O)c2ccc([N+](=O)[O-])cc2)c(C)[n+]2c(c1CNC(=O)c1ccc([N+](=O)[O-])cc1)CCC2 | > 300 | 67.7 | 161 | 
Cc1c(CNC(=O)c2ccc(C#N)cc2)c(C)[n+]2c(c1CNC(=O)c1ccc(C#N)cc1)CCC2 |  | 101 |  | 
Cc1c(CNC(=O)c2ccc(F)cc2)c(C)[n+]2c(c1CNC(=O)c1ccc(F)cc1)CCC2 |  | 80.9 |  | 
Cc1c(CNC(=O)c2ccc(C3CCCCC3)cc2)c(C)[n+]2c(c1CNC(=O)c1ccc(C3CCCCC3)cc1)CCC2 | 55.3 | 12.9 | 20.9 | 43.4
Cc1c(CNC(=O)c2ccc(N)cc2)c(C)[n+]2c(c1CNC(=O)c1ccc(N)cc1)CCC2 |  | 174 |  | 
